Data set [1] deals with T1, Solute carrier organic anion transporter family member 1B1 (Homo sapiens, UniProt Q9Y6L6).
T1 sequence (Q9Y6L6 whole entry): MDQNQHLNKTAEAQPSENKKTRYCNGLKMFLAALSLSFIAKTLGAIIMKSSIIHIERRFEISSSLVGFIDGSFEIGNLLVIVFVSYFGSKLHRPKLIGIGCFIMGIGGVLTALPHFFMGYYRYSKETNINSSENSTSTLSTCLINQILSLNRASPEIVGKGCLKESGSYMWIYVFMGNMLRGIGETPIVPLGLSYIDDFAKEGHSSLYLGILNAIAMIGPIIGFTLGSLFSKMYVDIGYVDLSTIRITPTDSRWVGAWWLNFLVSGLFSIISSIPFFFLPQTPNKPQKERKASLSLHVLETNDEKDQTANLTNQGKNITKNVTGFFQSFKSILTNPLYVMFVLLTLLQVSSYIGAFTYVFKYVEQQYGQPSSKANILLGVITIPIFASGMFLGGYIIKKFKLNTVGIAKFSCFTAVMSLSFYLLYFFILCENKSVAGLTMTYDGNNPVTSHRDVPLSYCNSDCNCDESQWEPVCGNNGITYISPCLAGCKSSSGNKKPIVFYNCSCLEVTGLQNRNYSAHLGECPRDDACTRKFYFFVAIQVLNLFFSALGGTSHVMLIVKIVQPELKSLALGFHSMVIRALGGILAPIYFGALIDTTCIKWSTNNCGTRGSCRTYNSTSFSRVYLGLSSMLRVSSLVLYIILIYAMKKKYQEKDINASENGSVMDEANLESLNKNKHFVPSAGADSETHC
Conditions: chinese hamster, cho, 10 µM.

For data set [2], the target named is T2, Solute carrier organic anion transporter family member 1B3 (Homo sapiens, UniProt Q9NPD5).
T2 sequence (Q9NPD5 whole entry): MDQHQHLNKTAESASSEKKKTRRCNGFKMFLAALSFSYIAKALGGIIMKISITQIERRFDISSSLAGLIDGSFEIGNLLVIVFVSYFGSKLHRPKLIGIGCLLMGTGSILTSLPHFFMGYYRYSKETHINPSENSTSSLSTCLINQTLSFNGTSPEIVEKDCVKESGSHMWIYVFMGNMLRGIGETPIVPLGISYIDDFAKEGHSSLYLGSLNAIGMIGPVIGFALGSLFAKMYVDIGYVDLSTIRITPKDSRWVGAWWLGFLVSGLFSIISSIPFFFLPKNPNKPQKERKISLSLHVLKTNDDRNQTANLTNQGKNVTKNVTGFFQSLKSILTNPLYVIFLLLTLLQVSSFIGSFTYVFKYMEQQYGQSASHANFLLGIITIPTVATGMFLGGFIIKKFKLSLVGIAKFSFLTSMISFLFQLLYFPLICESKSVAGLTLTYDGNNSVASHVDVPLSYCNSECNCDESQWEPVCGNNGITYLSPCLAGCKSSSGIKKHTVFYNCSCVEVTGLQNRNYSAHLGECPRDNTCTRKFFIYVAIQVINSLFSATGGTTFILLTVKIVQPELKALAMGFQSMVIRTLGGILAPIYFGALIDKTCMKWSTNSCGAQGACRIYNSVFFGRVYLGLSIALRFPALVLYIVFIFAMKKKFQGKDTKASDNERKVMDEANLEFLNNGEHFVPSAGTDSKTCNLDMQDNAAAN
Conditions: chinese hamster, cho, 10 µM.

Regarding `CN1CCN(C2=Nc3cc(Cl)ccc3Nc3ccccc32)CC1` [CLOZAPINE], the residual activity (usually the signal under treatment as a percentage of the control signal) in data set [1] is given as 86.29%; in data set [2] it was 93.38%.

Turning to `CNC(C)C(O)c1ccccc1.Cl` (stereo not given) [RACEPHEDRINE HYDROCHLORIDE], the values for the residual activity in data set [1] and in data set [2] were 70.72% and 103.1%, respectively.

In the case of `C[C@@H]1C[C@H]2CC(=O)[C@H]3CCCN4CCCC2[C@]34C1.[O-][Cl+3]([O-])([O-])O` (stereo not given in full), the residual activity in data set [1] is given as 104.6%; in data set [2] it was 106.7%.

With `c1ccc2c3c([nH]c2c1)CNCC3` [TRYPTOLINE], the residual activity was found to be 99.4% in data set [1] and 98.72% in data set [2].

Regarding `CC(=O)CCCCn1c(=O)c2c(ncn2C)n(C)c1=O` [PENTOXIFYLLINE], the residual activity in data set [1] is on record as 77.22%; in data set [2], 79.59%.

For `C=CC(C1=CC(=O)C(OC)=CC1=O)c1ccccc1` (stereo not given) [4-METHOXYDALBERGIONE], the residual activity is 77.75% in data set [1] and 139.3% in data set [2].

In the case of `Sc1nc2ccccc2s1` [2-MERCAPTOBENZOTHIAZOLE], the values for the residual activity in data set [1] and in data set [2] were 158.6% and 97.95%, respectively.

For `N#Cc1ccc2c(c1)N(CCCN1CCC(O)CC1)c1ccccc1S2` [PERICIAZINE], the residual activity was found to be 132.5% in data set [1] and 117.1% in data set [2].

Consider `CC(=O)N1CCCC1C(=O)O` (stereo not given) [N-ACETYLPROLINE], for which the figures for the residual activity in data set [1] and in data set [2] were 88.69% and 109.9%, respectively.

With `C#C[C@]1(O)CC[C@H]2[C@@H]3CCC4=Cc5oncc5C[C@]4(C)[C@H]3CC[C@@]21C` [DANAZOL], the residual activity in data set [1] came out at 80.9%; in data set [2] it was 95.7%.

With `CC1=C2[C@H]3OC(=O)[C@@H](C)[C@@H]3CC[C@@]2(C)C=CC1=O` [SANTONIN], the residual activity in data set [1] turned out to be 108.9%; in data set [2], 89.43%.

As to `CC(=O)Oc1ccc(/C=C/c2cc(OC(C)=O)cc(OC(C)=O)c2)cc1` [TRIACETYLRESVERATROL], the residual activity in data set [1] was determined as 160.6%; in data set [2] it was 143.6%.

As to `C=C(C)[C@@H]1CC[C@]2(CO)CC[C@]3(C)[C@H](CC[C@@H]4[C@@]5(C)CC[C@H](O)C(C)(C)[C@@H]5CC[C@]43C)[C@@H]12` [BETULIN], the results for the residual activity in data set [1] and in data set [2] were 106.3% and 92.43%, respectively.

`CC(C)=CC1C(C(=O)O)C1(C)C` (stereo not given) [CHRYSANTHEMIC ACID]: the results for the residual activity in data set [1] and in data set [2] were 83.79% and 97.37%, respectively.

As for `COc1cc2nc(N3CCN(C(=O)c4ccco4)CC3)nc(N)c2cc1OC.Cl` [PRAZOSIN HYDROCHLORIDE], the residual activity came to 99.58% in data set [1] and 90.48% in data set [2].

On to `CN1CCN(CC/C=C2/c3ccccc3Sc3ccc(S(=O)(=O)N(C)C)cc32)CC1` [THIOTHIXENE], for which the figures for the residual activity in data set [1] and in data set [2] were 72.97% and 115.8%, respectively.

On to `CC(=O)O[C@H]1C[C@@]2(C)[C@@H](C[C@@H](O)[C@H]3[C@@]4(C)CC[C@@H](O)[C@@H](C)[C@@H]4CC[C@@]32C)/C1=C(\CCC=C(C)C)C(=O)O` [FUSIDIC ACID], for which the residual activity in data set [1] stood at 39.52%; in data set [2], 58.34%.

Take `NC(=O)c1ccc[n+]([C@@H]2O[C@H](COP(=O)([O-])OP(=O)(O)OC[C@H]3O[C@@H](n4cnc5c(N)ncnc54)[C@H](O)[C@@H]3O)[C@@H](O)[C@H]2O)c1` [NADIDE]: the residual activity in data set [1] came out at 99.44%; in data set [2], 115.4%.

As for `O=[N+]([O-])NC1=NCCN1Cc1ccc(Cl)nc1` [IMIDACLOPRID], the residual activity is 73.94% in data set [1] and 90.03% in data set [2].

For the molecule `O=[N+]([O-])c1cccc2cn[nH]c12` [7-NITROINDAZOLE], the figures for the residual activity in data set [1] and in data set [2] were 147.5% and 106.1%, respectively.

Turning to `CC(C)(C)NC[C@H](O)COc1nsnc1N1CCOCC1.O=C(O)/C=C\C(=O)O` [TIMOLOL MALEATE], the residual activity in data set [1] is on record as 113.3%; in data set [2], 102.2%.

Turning to `COc1cc([C@@H]2c3cc4c(c(O)c3C[C@H]3COC(=O)[C@@H]32)OCO4)cc(OC)c1OC` [BETA-PELTATIN A], the residual activity worked out at 78.87% in data set [1] and 101.7% in data set [2].

`CC(=O)Oc1ccc2c(c1)CCC1C2CC[C@]2(C)C(=O)CCC12` (stereo not given in full) [ESTRONE ACETATE]: the residual activity in data set [1] worked out at 204.8%; in data set [2], 109.5%.

Turning to `CNc1ccccc1C(=O)N1CCc2c([nH]c3ccccc23)C1=O` [RHETSININE], the residual activity came out at 102% in data set [1] and 98.18% in data set [2].

Consider `CC(C)c1ccc2c(c1)CCC1[C@](C)(CN)CCC[C@]21C.O=S(=O)(O)O` (stereo not given in full) [18-AMINOABIETA-8,11,13-TRIENE SULFATE], for which the residual activity turned out to be 102.4% in data set [1] and 99.03% in data set [2].

For the molecule `C[C@@H]1O[C@@H](OC[C@H]2O[C@@H](Oc3c(-c4ccc(OCCO)c(OCCO)c4)oc4cc(OCCO)cc(O)c4c3=O)[C@H](O)[C@@H](O)[C@@H]2O)[C@H](O)[C@H](O)[C@H]1O` [TROXERUTIN], the residual activity in data set [1] stood at 61.9%; in data set [2], 49.51%.

For the molecule `COc1ccccc1OCC(O)COC(N)=O` (stereo not given) [METHOCARBAMOL], the residual activity in data set [1] is 101.2%; in data set [2] it was 104.7%.

In the case of `C/C1=C\CCC(=O)C2CC(C)(C)C2CC1` (stereo not given) [15-NORCARYOPHYLLEN-3-ONE], the residual activity in data set [1] came to 72.07%; in data set [2], 90.82%.

Take `COc1ccc([C@H]2Oc3cc(OC)cc(OC)c3C[C@H]2O)cc1` [EPIAFZELECHIN TRIMETHYL ETHER]: the residual activity in data set [1] amounted to 79.64%; in data set [2], 113.6%.

As to `CN[C@@H](Cc1c[nH]c2ccccc12)C(=O)O` [ABRINE], the residual activity is reported as 86.73% in data set [1] and 98.3% in data set [2].

On to `O=C(O)Cc1cc(I)c(Oc2cc(I)c(O)c(I)c2)c(I)c1` [TETRAC], for which the residual activity turned out to be 33.41% in data set [1] and 71.42% in data set [2].

Consider `CC(C)(Sc1cc(C(C)(C)C)c(O)c(C(C)(C)C)c1)Sc1cc(C(C)(C)C)c(O)c(C(C)(C)C)c1` [PROBUCOL], for which the residual activity in data set [1] was 102.2%; in data set [2], 90.56%.

`COc1ccc2c(c1)OC[C@@H](Cc1ccc(OC)c(OC)c1)[C@H]2O` [TETRAHYDROSAPPANONE A TRIMETHYL ETHER]: the residual activity in data set [1] is reported as 93.05%; in data set [2], 134.3%.

On to `CC(C)(C)C(=O)C(Oc1ccc(Cl)cc1)n1cncn1` (stereo not given) [TRIADIMEFON], for which the residual activity in data set [1] came out at 75.79%; in data set [2] it was 87.3%.

Turning to `CCn1cc(C(=O)O)c(=O)c2ccc(C)nc21` [NALIDIXIC ACID], the residual activity turned out to be 63.37% in data set [1] and 81.71% in data set [2].

On to `Clc1ccc(COC(Cn2ccnc2)c2ccc(Cl)cc2Cl)c(Cl)c1.O=[N+]([O-])O` (stereo not given) [MICONAZOLE NITRATE], for which the values for the residual activity in data set [1] and in data set [2] were 124.1% and 119.9%, respectively.

In the case of `COC1=CC(=O)C(C(=O)c2ccccc2)=CC1=O` [2-BENZOYL-5-METHOXYBENZOQUINONE], the values for the residual activity in data set [1] and in data set [2] were 106.8% and 165.6%, respectively.

Regarding `NC(=O)NC1NC(=O)NC1=O` (stereo not given) [ALLANTOIN], the residual activity was determined as 67.4% in data set [1] and 86.17% in data set [2].

For `COc1cc2c(cc1OC)[C@@H]1C(=O)c3ccc(OC)c(CC=C(C)C)c3O[C@@H]1CO2` [ROTENONIC ACID, METHYL ETHER], the residual activity in data set [1] worked out at 77.03%; in data set [2] it was 108.1%.

As to `COc1ccc(C(=O)CC(=O)O)c2c1C=CC(C)(C)O2` [URSINOIC ACID], the results for the residual activity in data set [1] and in data set [2] were 116% and 105.2%, respectively.

(Values after ChEMBL document CHEMBL3039007, “Structure-based identification of OATP1B1/3 inhibitors” (Mol Pharmacol, 2013).)
